Data published in US20120276064A1, “METHODS AND COMPOSITIONS FOR REJUVENATION AND EXPANSION OF STEM CELLS” (priority 2011, published 2012).

Tested on: MuSCs transplanted into tibialis anterior muscle
Assay: Transplantation of cultured MuSCs into irradiated NOD/SCID mice, engraftment by bioluminescence imaging
Assay type: in vivo, mouse
Settings: young MuSCs cultured one week on soft hydrogel with 10 μM; 100 cells transplanted; one month
Description: MuSC transplantation. MuSCs were transplanted immediately following FACS isolation or after collection from cell culture directly into the tibialis anterior muscle of recipient mice as previously described. Cells from GFP/Luciferase or Myf5^nLacZl+/Luciferase mice were transplanted into gender-matched, hindlimb-irradiated NOD/SCID (Jackson) mice. NOD/SCID (2-4 months of age, median 2 months) mice were anesthetized with ketamine (2.4 mg per mouse) and xylazine (240 μg per mouse) by intraperitoneal injection then were irradiated by a single dose of 18 Gy administered to the hindlimbs, with the rest of the body shielded in a lead jig. Transplantation was performed within three days post-irradiation. In syngeneic transplant studies, cells from old C57BL/6 mice were transplanted into gender-matched, littermate old C57BL/6 mice (Jackson) following culture for one week on soft hydrogels. Specifically, old C57BL/6 MuSCs were infected with a GFP/Luciferase lentivirus added at day 2 of culture for 24 hours. Recipient old C57BL/6 mice were acutely injured by a single 10 μl intramuscular injection of notexin (10 μg/ml; Latoxan, France) two days prior to cell transplantation, but were not irradiated. Freshly isolated or cultured cells were counted by hemocytometer and resuspended at desired cell concentrations in PBS with 2.5% goat serum and 1 mM EDTA. Cells were collected from hydrogel cultures by incubation with 0.5% trypsin in PBS for 2 min at 37° C. and counted using a hemocytometer. Cells were transplanted by intramuscular injection into the tibialis anterior muscle in a 10 μl volume.
Tissue histology. Recipient tibialis anterior muscle tissues were prepared for histology as previously described to analyze GFP expression. Transverse sections were incubated with anti-laminin (Millipore, Billerica, Calif.), anti-GFP (Invitrogen) antibodies, and/or anti-β-galactosidase (Abcam, Cambridge, Mass.) with appropriate secondary antibodies (Invitrogen). Nuclei were counter-stained with Hoechst 33342 (Invitrogen). Images were acquired with an AxioPlan2 epi-fluorescent microscope (Carl Zeiss Microimaging, Thornwood, N.Y.) with Plan NeoFluar 10×/0.30NA or 20×/0.75NA objectives (Carl Zeiss) and an ORCA-ER digital camera (Hamamatsu Photonics, Bridgewater, N.J.). Digital images were captured in OpenLab software (Improvision, Waltham, Mass.) and assembled in Photoshop software (Adobe, San Jose, Calif.) with consistent contrast adjustments across all images from the same stain.
Bioluminescence imaging. Bioluminescence imaging was performed using a Xenogen-100 system, as previously described. Briefly, mice were anesthetized under isofluorane and 100 μL luciferin (0.1 mmol/kg; Caliper LifeSciences, Hopkinton, Mass.) in PBS was administered by intraperitoneal injection. Following luciferin administration, images were acquired every minute for 15 min. Images acquired at 12 min post-luciferin injection were used for analysis. Digital images were recorded and analyzed using Living Image software (Caliper LifeSciences). Images were analyzed with a consistent region-of-interest (ROI) placed over each hindlimb to calculate a bioluminescence signal. A bioluminescence signal value of 80,000 photons/s was used to define a engraftment threshold, as this level corresponds to the histological detection of one or more GFP^+ myofiber (see FIG. 8A). BLI imaging was performed one month post-transplant unless otherwise stated.
MuSC culture and treatment. Following isolation, MuSCs were pelleted and resuspended into myogenic cell culture medium containing DMEM/F10 (50:50), 15% FBS, 2.5 ng/ml bFGF, and 1% penicillin/streptomycin. MuSCs were seeded at 1000 cells per well (24-well plate size wells, 2.0 cm^2 surface area) on laminin-tethered hydrogels of either 12 kPa (soft) or ˜10^6 kPa (rigid) rigidities. Cells were maintained at 37° C. in 5% CO2. Media was changed daily. […]

## C[S+]([O-])c1ccc(-c2nc(-c3ccncc3)c(-c3ccc(F)cc3)[nH]2)cc1 (stereo not shown) [SB203580]
  Transplant engraftment efficiency (in words): improves the transplant engraftment efficiency
